Biological target: GPR17-GFP fusion protein (UniProt P42212+Q13304, F64L/I167T/S65C)
Assay: Movement of GPR17-GFP fusion protein expressed in CHO cells into cells (confocal microscope)
Format: cell-based, human
Conditions: 100 μM, 45 minutes, 37° C.

With `NCC(=O)CCC(=O)O` [ALA, 5-aminolevulinic acid] the “localization of GPR17-GFP fusion protein (fluorescent images of GFP)” value was “moved in part to the cytoplasm”.
